Test results reported in US20180273528A1 (LES LABORATOIRES SERVIER, priority 2015, published 2018).

Columns and labels:
Format in all cases: biochemical
CDK9 = biological target: T1, CDK9 (Homo sapiens, UniProt P50750); experiment: Kinase TR-FRET assay, CDK9; conditions: full-length human kinase, 10 μM ATP
T1 construct: full-length human kinases from Carna Biosciences; purchased Carna Biosciences 04-110
Outline: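 Full-length human CDK9 (0.9 ng/μl) incubated 100 min at room temperature with 10 μM ATP, 100 nM ULight-MBP peptide and compound (0.1 nM–30 μM) in 50 mM HEPES pH 7.4, 1 mM EGTA, 10 mM MgCl2, 2 mM DTT, 0.01% Tween20. Stopped with 10 mM EDTA, then 1 nM Eu-anti-phospho-Thr232 MBP antibody added for 1 h. TR-FRET read at 665/620 nm with 340 nm excitation.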

[1] = biological target: T2, His-TEV-DYRK1A Kinase domain (aa127-485) (Homo sapiens, UniProt Q13627); experiment: Kinase ADP assay (ADP Hunter), DYRK1A kinase domain; conditions: 20 μM ATP
T2 construct: His-TEV-DYRK1A Kinase domain (aa127-485); His tag (N); TEV protease cleavage site (N)
Outline: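 Readout is ADP Hunter fluorescence at 590 nm, developed 20 min at 30 °C after the kinase step. That step ran 10 min at 30 °C in Hepes pH 7.4 (10 mM MgCl2, 1 mM EGTA, 0.02% Tween20) containing 20 μM ATP, 40 μM peptide and 20 nM enzyme plus compound.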

DYRK1A = DYRK1A (Homo sapiens, UniProt Q13627); experiment: Kinase TR-FRET assay, DYRK1A; parameters: full-length, wild-type human DYRK1A (NM_001396) with an HA tag; expressed in transfected cells; host or cells: human U2-OS osteosarcoma cells, transient transfection of a pcDNA3.1 plasmid; conditions: full-length human kinase, 10 μM ATP
Outline: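 Compounds tested at 0.1 nM to 30 μM in reaction buffer; reaction stopped with 10 mM EDTA. Phosphorylated MBP detected with 1 nM Europium-labelled anti-phospho-Thr232 antibody by TR-FRET.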

T1 sequence (P50750 whole entry): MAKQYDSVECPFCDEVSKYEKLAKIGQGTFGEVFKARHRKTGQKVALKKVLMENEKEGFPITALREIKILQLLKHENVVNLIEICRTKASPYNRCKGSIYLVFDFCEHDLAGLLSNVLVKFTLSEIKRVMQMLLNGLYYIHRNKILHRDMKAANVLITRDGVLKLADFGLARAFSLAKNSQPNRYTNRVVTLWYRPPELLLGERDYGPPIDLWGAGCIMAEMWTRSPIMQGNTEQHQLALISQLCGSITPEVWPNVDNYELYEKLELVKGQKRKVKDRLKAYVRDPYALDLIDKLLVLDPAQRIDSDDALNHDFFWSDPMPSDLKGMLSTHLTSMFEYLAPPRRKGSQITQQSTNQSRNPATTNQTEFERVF
T1 sequence (O60563 whole entry partner): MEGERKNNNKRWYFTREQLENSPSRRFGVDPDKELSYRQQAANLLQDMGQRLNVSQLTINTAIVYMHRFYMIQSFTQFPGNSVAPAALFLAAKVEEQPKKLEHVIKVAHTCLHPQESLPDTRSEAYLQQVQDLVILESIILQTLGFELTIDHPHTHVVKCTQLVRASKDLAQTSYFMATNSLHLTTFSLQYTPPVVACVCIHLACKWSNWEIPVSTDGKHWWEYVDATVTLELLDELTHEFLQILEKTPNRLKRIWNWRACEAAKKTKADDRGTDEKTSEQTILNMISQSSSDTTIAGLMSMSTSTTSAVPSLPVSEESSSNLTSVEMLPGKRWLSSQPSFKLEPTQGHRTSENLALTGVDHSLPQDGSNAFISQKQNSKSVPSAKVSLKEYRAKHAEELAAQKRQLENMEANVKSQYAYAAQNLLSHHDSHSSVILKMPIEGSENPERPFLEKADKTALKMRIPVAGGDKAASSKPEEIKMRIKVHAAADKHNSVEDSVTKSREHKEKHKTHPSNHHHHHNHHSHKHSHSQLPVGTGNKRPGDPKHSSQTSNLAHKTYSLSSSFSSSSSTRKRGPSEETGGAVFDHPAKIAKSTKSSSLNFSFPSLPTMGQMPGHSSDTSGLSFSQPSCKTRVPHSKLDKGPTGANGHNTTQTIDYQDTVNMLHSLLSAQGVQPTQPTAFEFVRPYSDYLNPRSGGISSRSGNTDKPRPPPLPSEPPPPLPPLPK

An IC50 (CDK9) greater than 3 µM, an IC50 [1] of 0.012 µM and an IC50 (DYRK1A) of 0.008 µM were found for `Cc1nc2ccc(-c3cc(N)nc(N)c3)nc2n1C[C@@H](C)Oc1ccccc1` (single isomer, unassigned) [Example 106] in this work.

An IC50 (CDK9) of 2.15 µM, an IC50 [1] of 0.007 µM and an IC50 (DYRK1A) of 0.011 µM were found for `Cc1nc2ccc(-c3cc(N)nc(N)c3)nc2n1C1CC1` [Example 9, 4-(3-cyclopropyl-2-methyl-3H-imidazo[4,5-b]pyridin-5-yl)pyridine-2,6-diamine] in this work.

An IC50 (CDK9) of 2.94 µM, an IC50 [1] of 0.008 µM and an IC50 (DYRK1A) of 0.012 µM were found for `Cc1nc2ccc(-c3cc(N)nc(N)c3)nc2n1Cc1ccoc1` [Example 42, 4-[3-(furan-3-ylmethyl)-2-methyl-3H-imidazo[4,5-b]pyridin-5-yl]pyridine-2,6-diamine] in this work.

An IC50 (CDK9) of 1.41 µM, an IC50 [1] of 0.006 µM and an IC50 (DYRK1A) of 0.006 µM were found for `Cc1nc2ccc(-c3cc(N)nc(N)c3)nc2n1CCCC(F)(F)F` [Example 71, 4-[2-methyl-3-(4,4,4-trifluorobutyl)-3H-imidazo[4,5-b]pyridin-5-yl]pyridine-2,6-diamine] in this work.

An IC50 (CDK9) of 1.26 µM, an IC50 [1] of 0.006 µM and an IC50 (DYRK1A) of 0.003 µM were found for `Cc1nc2ccc(-c3cc(N)nc(N)c3)nc2n1C1CC(F)(F)C1` [Example 101, 4-[3-(3,3-difluorocyclobutyl)-2-methyl-3H-imidazo[4,5-b]pyridin-5-yl]pyridine-2,6-diamine] in this work.

An IC50 (CDK9) of 0.666 µM, an IC50 [1] of 0.006 µM and an IC50 (DYRK1A) of 0.006 µM were found for `Cc1nc2ccc(-c3cc(N)nc(N)c3)nc2n1C1CC(F)C1` (stereo not drawn) [Example 103, 4-[3-(3-fluorocyclobutyl)-2-methyl-3H-imidazo[4,5-b]pyridin-5-yl]pyridine-2,6-diamine] in this work.

An IC50 (CDK9) of 3.39 µM, an IC50 [1] of 0.007 µM and an IC50 (DYRK1A) of 0.004 µM were found for `CCn1c(C)nc2ccc(-c3cc(N)nc(N)c3)nc21` [Example 154, 4-(3-ethyl-2-methyl-3H-imidazo[4,5-b]pyridin-5-yl)pyridine-2,6-diamine] in this work.
